# Experimental data published in patent US20070128217A1 (priority 2003, published 2007).
# Legend:
# [1] = test system: rabbit serum obtained by immunizing a rabbit with the SARS-CoV strain Frankfurt 1; type: binding; design: Binding of a rabbit serum to linear peptides / Binding of a rabbit serum to looped peptides / Rabbit serum linear peptides / Rabbit serum looped peptides / Binding of a rabbit serum to linear peptides of protein N of SARS-CoV Urbani (Rabbit serum linear peptides) / Binding of a rabbit serum to looped/cyclic peptides of protein N of SARS-CoV Urbani (Rabbit serum looped peptides): unit not given here
# [2] = test system: control sera (pooled serum of ten healthy LUMC hospital workers; commercial negative donor pooled serum from the Dutch bloodbank); type: binding, human; design: Binding of Control serum LUMC to linear peptides / Binding of Control serum Blood-bank to linear peptides / Binding of Control serum LUMC to looped peptides / Binding of Control Serum Blood-Bank to Looped peptides / Binding of Control serum LUMC to linear peptides of the protein M of SARS-CoV Urbani / Binding of Control serum Blood-bank to linear peptides of the protein M of SARS-CoV Urbani / Binding of Control serum LUMC to looped peptides of the protein M of SARS-CoV Urbani / Binding of Control Serum Blood-Bank to Looped peptides of the protein M of SARS-CoV Urbani: unit not given here
# [3] = test system: antibodies in sera from SARS patients (sera 1a, 1b, 2, 6, 37, 62, London, SARS-yellow, SARS-green); type: binding, human; design: Binding of serum 6 to linear peptides of protein X1 of SARS-CoV Urbani / Binding of serum 37 to linear peptides of protein X1 of SARS-CoV Urbani / Binding of serum 6 to looped/cyclic peptide (PEPSCAN-ELISA) / Binding of serum 37 to looped/cyclic peptide (PEPSCAN-ELISA) / Binding of serum 37 to looped/cyclic peptides of protein X1 of SARS-CoV Urbani / Binding of serum 6 to linear peptides of protein X2 / Binding of serum 37 to linear peptides of protein X2 / Binding of serum 37 to looped/cyclic peptides of protein X2 of SARS-CoV Urbani / Binding of serum 6 to linear peptides of protein M of SARS-CoV Urbani / Binding of serum 37 to linear peptides of protein M of SARS-CoV Urbani / Binding of serum 6 to looped/cyclic peptides of protein M of SARS-CoV Urbani / Binding of serum 37 to looped/cyclic peptides of protein M of SARS-CoV Urbani / Binding of serum 6 to linear peptides of protein X3 of SARS-CoV Urbani / Binding of serum 37 to linear peptides of protein X3 of SARS-CoV Urbani / Binding of serum 37 to looped/cyclic peptides of protein X3 of SARS-CoV Urbani / Binding of serum 6 to linear peptides of protein X4 of SARS-CoV Urbani / Binding of serum 37 to linear peptides of protein X4 of SARS-CoV Urbani / Binding of serum 37 to looped/cyclic peptides of protein X4 of SARS-CoV Urbani / Binding of serum 6 to linear peptides of protein X5 of SARS-CoV Urbani / Binding of serum 37 to linear peptides of protein X5 of SARS-CoV Urbani / Binding of serum 37 to looped/cyclic peptides of protein X5 of SARS-CoV Urbani / Binding of serum 6 to linear peptides of protein N of SARS-CoV Urbani / Binding of serum 37 to linear peptides of protein N of SARS-CoV Urbani / Binding of serum 6 to linear peptide (PEPSCAN-ELISA) / Binding of serum 1a to looped/cyclic peptides of protein N of SARS-CoV Urbani / Binding of serum 1b to looped/cyclic peptides of protein N of SARS-CoV Urbani / Binding of serum 2 to looped/cyclic peptides of protein N of SARS-CoV Urbani / Binding of serum 6 to looped/cyclic peptides of protein N of SARS-CoV Urbani / Binding of serum 37 to looped/cyclic peptides of protein N of SARS-CoV Urbani / Binding of serum 62 to looped/cyclic peptides of protein N of SARS-CoV Urbani / Binding of serum London to looped/cyclic peptides of protein N of SARS-CoV Urbani / Binding of serum SARS-green to looped/cyclic peptides of protein N of SARS-CoV Urbani: unit not given here
sequence,measurement,setting,value
MMPTTLFAGTHITMT,Binding of a rabbit serum to linear peptides,[1],0.6
same,Binding of a rabbit serum to looped peptides,[1],0.6
HRWHTMVQTGTPNVT,Binding of Control Serum Blood-Bank to Looped peptides,[2],0.4
same,Binding of Control serum Blood-bank to linear peptides,[2],0.8
same,Binding of Control serum LUMC to linear peptides,[2],0.4
same,Binding of Control serum LUMC to looped peptides,[2],0.4
CWYLHEGHQTAAFRD,Rabbit serum linear peptides,[1],0.3
same,Rabbit serum looped peptides,[1],0.4
RTLSYYKLGASQPVG,Binding of Control Serum Blood-Bank to Looped peptides of the protein M of SARS-CoV Urbani,[2],0.6
same,Binding of Control serum Blood-bank to linear peptides of the protein M of SARS-CoV Urbani,[2],0.9
same,Binding of Control serum LUMC to linear peptides of the protein M of SARS-CoV Urbani,[2],0.8
same,Binding of Control serum LUMC to looped peptides of the protein M of SARS-CoV Urbani,[2],0.8
SPASTVHATATIPLQ,Binding of a rabbit serum to linear peptides,[1],1.0
same,Binding of a rabbit serum to looped peptides,[1],0.4
MVQTCTPNVTINCQD,Rabbit serum linear peptides,[1],0.5
same,Rabbit serum looped peptides,[1],0.2
AGTHITMTTVYHITV,Binding of a rabbit serum to linear peptides,[1],0.7
same,Binding of a rabbit serum to looped peptides,[1],0.5
LACPVLAAVYRINWV,Binding of Control Serum Blood-Bank to Looped peptides of the protein M of SARS-CoV Urbani,[2],0.7
same,Binding of Control serum Blood-bank to linear peptides of the protein M of SARS-CoV Urbani,[2],0.7
same,Binding of Control serum LUMC to linear peptides of the protein M of SARS-CoV Urbani,[2],0.6
same,Binding of Control serum LUMC to looped peptides of the protein M of SARS-CoV Urbani,[2],0.7
GHPLGRCDTKDLPKE,Rabbit serum linear peptides,[1],0.3
same,Rabbit serum looped peptides,[1],0.0
VEELKQLLEQWNLVI,Recognition of the peptide by the rabbit serum,[1],recognized
GHLRMAGHPLGRCDI,Rabbit serum linear peptides,[1],0.4
same,Rabbit serum looped peptides,[1],0.7
GFQFICNLLLLFVTI,Binding of Control Serum Blood-Bank to Looped peptides,[2],0.4
same,Binding of Control serum Blood-bank to linear peptides,[2],0.4
same,Binding of Control serum LUMC to linear peptides,[2],0.5
same,Binding of Control serum LUMC to looped peptides,[2],0.5
same,Binding of serum 1a to linear peptides of protein X1 of SARS-CoV Urbani,[3],0.6
same,Binding of serum 1a to looped/cyclic peptide (PEPSCAN-ELISA),[3],0.5
same,Binding of serum 1b to linear peptides of protein X1 of SARS-CoV Urbani,[3],0.5
same,Binding of serum 1b to looped/cyclic peptide (PEPSCAN-ELISA),[3],0.3
same,Binding of serum 2 to linear peptides of protein X1 of SARS-CoV Urbani,[3],0.5
same,Binding of serum 2 to looped/cyclic peptide (PEPSCAN-ELISA),[3],0.3
same,Binding of serum 6 to linear peptides of protein X1 of SARS-CoV Urbani,[3],0.4
same,Binding of serum 6 to looped/cyclic peptide (PEPSCAN-ELISA),[3],0.3
same,Binding of serum 37 to linear peptides of protein X1 of SARS-CoV Urbani,[3],0.5
same,Binding of serum 37 to looped/cyclic peptide (PEPSCAN-ELISA),[3],0.5
same,Binding of serum 62 to linear peptides of protein X1 of SARS-CoV Urbani,[3],0.6
same,Binding of serum 62 to looped/cyclic peptide (PEPSCAN-ELISA),[3],0.5
same,Binding of serum London to linear peptides of protein X1 of SARS-CoV Urbani,[3],0.3
same,Binding of serum London to looped/cyclic peptide (PEPSCAN-ELISA),[3],0.2
same,Binding of serum SARS-green to linear peptides of protein X1 of SARS-CoV Urbani,[3],0.2
same,Binding of serum SARS-green to looped/cyclic peptide (PEPSCAN-ELISA),[3],0.2
same,Binding of serum SARS-yellow to linear peptides of protein X1 of SARS-CoV Urbani,[3],0.5
same,Binding of serum SARS-yellow to looped/cyclic peptide (PEPSCAN-ELISA),[3],0.4
WQLALYKGFQFTCNL,Binding of Control Serum Blood-Bank to Looped peptides,[2],0.6
same,Binding of Control serum Blood-bank to linear peptides,[2],0.6
same,Binding of Control serum LUMC to linear peptides,[2],0.6
same,Binding of Control serum LUMC to looped peptides,[2],0.7
LCKHKKVSTNLGTHS,Binding of serum 1a to looped/cyclic peptides of protein X2 of SARS-CoV Urbani,[3],0.3
same,Binding of serum 1b to looped/cyclic peptides of protein X2 of SARS-CoV Urbani,[3],0.4
same,Binding of serum 2 to looped/cyclic peptides of protein X2 of SARS-CoV Urbani,[3],0.3
same,Binding of serum 6 to looped/cyclic peptides of protein X2 of SARS-CoV Urbani,[3],0.3
same,Binding of serum 37 to looped/cyclic peptides of protein X2 of SARS-CoV Urbani,[3],0.3
same,Binding of serum 62 to looped/cyclic peptides of protein X2 of SARS-CoV Urbani,[3],0.4
same,Binding of serum London to looped/cyclic peptides of protein X2 of SARS-CoV Urbani,[3],0.3
same,Binding of serum SARS-green to looped/cyclic peptides of protein X2 of SARS-CoV Urbani,[3],0.3
same,Binding of serum SARS-yellow to looped/cyclic peptides of protein X2 of SARS-CoV Urbani,[3],0.5
ACRTIMRCWLCWKCK,Binding of serum 1a to looped/cyclic peptide (PEPSCAN-ELISA),[3],0.7
same,Binding of serum 1b to looped/cyclic peptide (PEPSCAN-ELISA),[3],0.9
same,Binding of serum 2 to looped/cyclic peptide (PEPSCAN-ELISA),[3],0.6
same,Binding of serum 6 to looped/cyclic peptide (PEPSCAN-ELISA),[3],0.3
same,Binding of serum 37 to looped/cyclic peptide (PEPSCAN-ELISA),[3],0.8
same,Binding of serum 62 to looped/cyclic peptide (PEPSCAN-ELISA),[3],0.5
same,Binding of serum London to looped/cyclic peptide (PEPSCAN-ELISA),[3],0.2
same,Binding of serum SARS-green to looped/cyclic peptide (PEPSCAN-ELISA),[3],1.2
same,Binding of serum SARS-yellow to looped/cyclic peptide (PEPSCAN-ELISA),[3],0.7
